Data: publication PMC12562781 (International Journal of Molecular Sciences, 2025)
pIC50: −log10 of the molar value. Values after ≈ are worked out from the molar mass of the structure shown. Read-outs that look alike come from different tables or passages of the source.

Legend:
[1] = test system: breast adenocarcinoma cancer cell lines (MDA); test: MTT cytotoxicity assay, MDA cells; details: Homo sapiens, 24 h, read-out: IC50 Values, cytotoxicity, MDA
Procedure: (§1) The cells were allowed to grow to 90% confluency in an incubator set at 37 °C containing 5% CO2, before they were trypsinized and cultured in 96-well tissue culture plates. Stock and final concentrations of the compounds were prepared in the culture media.
(§2) Just 5 h before the elapse of 24 h, 10 µL of 5 mg/mL MTT solution was added to each well, and the plates were further incubated. At the end of the incubation period, the media was removed from each well and replaced with 50 µL of DMSO. The plates were shaken on a rotating shaker for 10 min before taking readings at 560 nm using a microplate reader (Elisa Plate Reader, BioTek Instruments, Inc., Winooski, VT, USA). […] IC50 values were calculated from the graphs as compound concentrations that reduced the absorbance at 560 nm by 50% of the untreated control wells. To exclude background readings, three wells were seeded with untreated cells in which MTT was not added. Assays were performed in triplicate to ensure reproducibility. The percentage inhibitions of cell proliferation were calculated using the following formula:% Cytotoxicity = ((A − B)/A) × 100 where: A is the absorbance of the negative control (untreated cells). B is the absorbance of the treated cells.
(§3) Data were presented as the cumulative mean of each compound. Each compound was run in triplicate. GraphPad Prism (version 5) was used for statistical analysis of all data. For all the data, one-way analysis of variance (ANOVA) followed by Bonferroni’s multiple comparison tests was used to compare the means of one group with every other group. Statistical significance was set at 5%; thus, a p-value ≤ 0.05 was considered significant. Concentrations that inhibit cell proliferation by 50% (IC50) were calculated using Graphpad Prism 5 software.

[2] = MTT cytotoxicity assay, KMST-6 cells; type: cell-based, human; details: human
Procedure: (§4) Assays were performed in triplicate to ensure reproducibility. […] B is the absorbance of the treated cells.
(§5) Each compound was run in triplicate.

[3] = test system: human liver cancer cell lines (HepG2); test: MTT cytotoxicity assay, HepG2 cells; details: HepG2, 24 h, read-out: IC50 Values, cytotoxicity, HepG2
Procedure: as §1, §2, §3

[4] = test system: human prostate cancer cell lines (PC3); test: MTT cytotoxicity assay, PC3 cells
Procedure: as §1, §2
Data were presented as the cumulative mean of each compound. Each compound was run in triplicate. GraphPad Prism (version 5) was used for statistical analysis of all data. […]

Plasmodium berghei = test system: Plasmodium berghei; parameters: method as in PMID 24108397; details: mice; cited from earlier work
HEK293 = test system: HEK293; parameters: method as in PMID 24108397; details: cited from earlier work
HepG2 = test system: HepG2; parameters: method as in PMID 24108397; details: cited from earlier work
Hep-G2 = details: cited from earlier work
[5] = test system: non-cancerous human fibroblast cell lines (KMST-6); test: MTT cytotoxicity assay, KMST-6 cells; type: cell-based; details: MTT, 24 h, 0.156 µM to 10 µM, triplicate; non-cancerous cells
Procedure: as §4, §5

Plasmodium = test system: Plasmodium; parameters: method as in PMID 24108397; details: cited from earlier work
MDA-MB-231 = details: cited from earlier work
HeLa cells = test system: HeLa cells; parameters: method as in PMID 24658565; details: read-out: cytotoxic IC50, HeLa; cited from earlier work
HT-29 cells = test system: HT-29 cells; parameters: method as in PMID 24658565; details: read-out: cytotoxic IC50, HT-29; cited from earlier work
MCF-7 cells = test system: MCF-7 cells; parameters: method as in PMID 24658565; details: read-out: cytotoxic IC50, MCF-7; cited from earlier work
HL60 cells = test system: HL60 cells; parameters: method as in doi:10.1007/s00044-014-1093-y; details: cited from earlier work
Funtumia africana = test system: Funtumia africana; parameters: method as in earlier work; details: cited from earlier work
[6] = test system: Vero cells and human liver cancer cells; parameters: method as in earlier work; details: cited from earlier work
[7] = test system: human breast cancer cells (MDA-MB-231); parameters: method as in PMID 28231262; details: cited from earlier work

SMILES: COC(=O)[C@]12CC[C@@H](C)[C@H](C)C1C1=CCC3[C@@]4(C)CC[C@H](OC(C)=O)C(C)(C)C4CC[C@@]3(C)[C@]1(C)CC2 (some centres unmarked) [Compound 5, 3-acetylursolic-methylate]
- pIC50 [1]: 5.72
- IC50 at 24 h [2]: > 5 µM
- pIC50 [3]: 6.07

SMILES: CC(=O)O[C@H]1CC[C@]2(C)[C@H]3CC=C4[C@@H]5[C@@H](C)[C@H](C)CC[C@]5(C(=O)O)CC[C@@]4(C)[C@]3(C)CC[C@H]2C1(C)C [Compound 3, 3-O-acetyl ursolic acid]
- pIC50 [1]: 5.41
- IC50 at 24 h [2]: 4.88 µM
- pIC50 [3]: 6.07
- IC50 Values, cytotoxicity, PC3 [4]: ns
- decrease of parasitemia (Plasmodium berghei): 94.01%
- cytotoxicity IC50, HEK293 (HEK293): 366.00 µg/mL
- cytotoxicity IC50, HepG2 (HepG2): 566.09 µg/mL
- cytotoxicity IC50, Hep-G2 (Hep-G2): 4.73 µg/mL

SMILES: C[C@H]1[C@H](C)CC[C@]2(C(=O)O)CC[C@]3(C)C(=CC[C@@H]4[C@@]5(C)CC[C@H](O)C(C)(C)[C@@H]5CC[C@]43C)[C@H]12 [Compound 1, ursolic acid]
- pIC50 [1]: < 5.30
- IC50 Values, cytotoxicity, KMST-6 [5]: ns
- pIC50 [3]: 6.58
- pIC50 ([4]; read-out: IC50 Values, cytotoxicity, PC3, MTT, 24 h, 0.156 µM to 10 µM, triplicate): 6.58
- anti-plasmodial IC50 (Plasmodium): 6.8 µg/mL
- concentration that inhibits cell proliferation (MDA-MB-231): ≥ 160 µg/mL
- pIC50 (HeLa cells): 5.00
- pIC50 (HT-29 cells): 5.00
- pIC50 (MCF-7 cells): 4.70

SMILES: COC(=O)[C@]12CC[C@@H](C)[C@H](C)[C@H]1C1=CC[C@@H]3[C@@]4(C)CC[C@H](O)C(C)(C)[C@@H]4CC[C@@]3(C)[C@]1(C)CC2 [Compound 4, ursolic-28-methylate]
- pIC50 [1]: 5.61
- IC50 at 24 h [2]: > 5 µM
- pIC50 [3]: 5.80
- ED50, HL60 (HL60 cells): 22.7 µg/mL (≈ 48.2 µM)
- MIC (Funtumia africana): 62.5 µg/mL (≈ 133 µM)
- cytotoxicity IC50 [6]: 10.4 µg/mL

SMILES: CC1(C)CC[C@]2(C(=O)O)CC[C@]3(C)C(=CC[C@@H]4[C@@]5(C)CC[C@H](O)C(C)(C)[C@@H]5CC[C@]43C)[C@@H]2C1 [Compound 2, oleanolic acid]
- pIC50 [1]: 5.35
- IC50 at 24 h ([2]; KMST-6 non-cancerous fibroblast cells, MTT, 24 h, 0.156 µM to 10 µM, triplicate, non-cancerous cells, read-out: IC50 Values, cytotoxicity, KMST-6): 3.88 µM
- pIC50 [3]: 5.92
- effect on cell migration [7]: clearly enhanced cell migration

SMILES: COC1CCC2(C)C3CCC4(C)C(=CCC5(C)CCC(C)(C)CC54)C3(C)CCC2C1(C)C (centres unmarked) [sawamilletin]
- anti-plasmodial IC50 (Plasmodium; unit not given): > 100

SMILES: CC1(C)CC[C@]2(C)CC=C3[C@]4(C)CC[C@H]5C(C)(C)[C@@H](O)CC[C@]5(C)[C@H]4CC[C@@]3(C)[C@@H]2C1 [taraxerol]
- anti-plasmodial IC50 (Plasmodium; unit not given): > 100
